This note sets out measurements from article doi:10.1101/2022.05.18.492512v2 (biorxiv, 2022).

Experiment [1] addresses T1, ABCG5/G8 (Homo sapiens, UniProt Q9H221+Q9H222, Q9H222:A540F).
T1 sequence (Q9H222 1-651 A540F): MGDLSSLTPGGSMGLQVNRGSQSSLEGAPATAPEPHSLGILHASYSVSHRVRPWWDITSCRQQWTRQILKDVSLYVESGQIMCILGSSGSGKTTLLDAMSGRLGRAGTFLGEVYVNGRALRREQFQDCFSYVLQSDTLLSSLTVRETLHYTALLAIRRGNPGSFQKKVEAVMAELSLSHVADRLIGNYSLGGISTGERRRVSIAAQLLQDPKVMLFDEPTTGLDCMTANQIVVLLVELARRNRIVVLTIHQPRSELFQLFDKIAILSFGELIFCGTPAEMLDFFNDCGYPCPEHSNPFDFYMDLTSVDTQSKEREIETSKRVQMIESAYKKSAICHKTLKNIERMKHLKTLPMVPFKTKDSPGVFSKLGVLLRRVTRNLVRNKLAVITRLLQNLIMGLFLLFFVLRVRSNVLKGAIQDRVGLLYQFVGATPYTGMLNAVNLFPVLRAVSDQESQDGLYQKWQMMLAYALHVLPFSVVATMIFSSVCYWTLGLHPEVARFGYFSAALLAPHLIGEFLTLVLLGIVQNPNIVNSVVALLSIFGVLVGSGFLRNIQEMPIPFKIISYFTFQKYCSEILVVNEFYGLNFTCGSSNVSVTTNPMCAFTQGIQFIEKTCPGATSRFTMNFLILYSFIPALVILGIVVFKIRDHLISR
T1 sequence (Q9H221 1-673): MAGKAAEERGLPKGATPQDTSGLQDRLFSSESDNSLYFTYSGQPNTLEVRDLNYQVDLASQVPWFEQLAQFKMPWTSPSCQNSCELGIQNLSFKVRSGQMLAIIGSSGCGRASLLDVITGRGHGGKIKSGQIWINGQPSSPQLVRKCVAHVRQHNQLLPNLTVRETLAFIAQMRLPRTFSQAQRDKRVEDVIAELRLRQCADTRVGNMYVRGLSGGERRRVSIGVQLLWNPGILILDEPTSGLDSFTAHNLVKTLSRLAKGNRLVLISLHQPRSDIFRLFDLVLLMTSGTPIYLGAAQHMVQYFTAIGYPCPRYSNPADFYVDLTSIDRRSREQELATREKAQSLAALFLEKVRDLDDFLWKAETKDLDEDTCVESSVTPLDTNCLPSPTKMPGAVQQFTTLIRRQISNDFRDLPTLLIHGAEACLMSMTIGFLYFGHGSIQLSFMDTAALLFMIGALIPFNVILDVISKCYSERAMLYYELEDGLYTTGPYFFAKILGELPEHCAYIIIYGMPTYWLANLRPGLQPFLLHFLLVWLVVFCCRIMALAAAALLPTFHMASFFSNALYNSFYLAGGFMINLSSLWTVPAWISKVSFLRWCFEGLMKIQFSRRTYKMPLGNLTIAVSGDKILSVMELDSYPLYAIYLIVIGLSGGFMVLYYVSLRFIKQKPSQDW
Description: [3H]cholesterol binding, Ni-NTA bead pull-down, scintillation counting.

Experiment [2] concerns the target T2, ABCG5/G8 (Homo sapiens, UniProt Q9H221+Q9H222).
T2 sequence (Q9H222 1-651): T1 sequence (Q9H222 1-651 A540F) with F540A
T2 sequence (Q9H221 1-673): T1 sequence (Q9H221 1-673)
Described as above.

Structures are written as SMILES. Numbering of substitutions follows the chain as printed.

A word on the Kd: it is the concentration at which binding is half-saturated.

With `CC(C)CCC[C@@H](C)[C@H]1CC[C@H]2[C@@H]3CC=C4C[C@@H](O)CC[C@]4(C)[C@H]3CC[C@]12C` [cholesterol], the dissociation constant (Kd) was found to be 1.55 ± 0.01 µM on ABCG5/G8 [1] and 1.46 ± 0.28 µM at ABCG5/G8 [2].
